Measured values taken from PubChem BioAssay (NCI).
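Protocol summary: plate cells (96-well), add compound at 5 concentrations, incubate 48 h, interpolate endpoints linearly. Abbreviation: GI50, concentration required for 50% inhibition of growth. TGI: concentration producing complete growth inhibition.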

Experiments:
Assay in all cases: inhibition of tumour cell growth, NCI panel, 48 h
HCT-116 colon = system: HCT-116 colon
M14 melanoma = system: M14 melanoma
KM12 colon = system: KM12 colon
NCI-H226 lung = system: NCI-H226 lung
SF-295 CNS = system: SF-295 CNS
HOP-92 NSCLC = system: HOP-92 NSCLC
NCI-H460 lung = system: NCI-H460 lung
A549 NSCLC = system: A549 NSCLC
A498 renal = system: A498 renal
CAKI-1 renal = system: CAKI-1 renal
PC-3 prostate = system: PC-3 prostate
SNB-19 CNS = system: SNB-19 CNS
NCI-H23 lung = system: NCI-H23 lung
SK-MEL-28 melanoma = system: SK-MEL-28 melanoma
SNB-75 CNS = system: SNB-75 CNS
IGROV1 ovarian = system: IGROV1 ovarian
786-0 renal = system: 786-0 renal
EKVX NSCLC = system: EKVX NSCLC
SK-MEL-5 melanoma = system: SK-MEL-5 melanoma
COLO 205 colon = system: COLO 205 colon
LOX IMVI melanoma = system: LOX IMVI melanoma
UACC-257 melanoma = system: UACC-257 melanoma
SF-539 CNS = system: SF-539 CNS
SW-620 colon = system: SW-620 colon
MCF7 breast = system: MCF7 breast
OVCAR-3 ovarian = system: OVCAR-3 ovarian
CCRF-CEM leukemia = system: CCRF-CEM leukemia
BT-549 breast = system: BT-549 breast
K-562 leukemia = system: K-562 leukemia
HCT-15 colon = system: HCT-15 colon
OVCAR-5 ovarian = system: OVCAR-5 ovarian
HOP-62 NSCLC = system: HOP-62 NSCLC
MDA-MB-435 = system: MDA-MB-435
SK-OV-3 ovarian = system: SK-OV-3 ovarian
SR leukemia = system: SR leukemia
MOLT-4 leukemia = system: MOLT-4 leukemia
HCC-2998 colon = system: HCC-2998 colon
SK-MEL-2 melanoma = system: SK-MEL-2 melanoma
DU-145 prostate = system: DU-145 prostate
T-47D breast = system: T-47D breast
SN12C renal = system: SN12C renal
U251 CNS = system: U251 CNS
HT29 colon = system: HT29 colon
RPMI-8226 leukemia = system: RPMI-8226 leukemia
NCI/ADR-RES ovarian = system: NCI/ADR-RES ovarian
UO-31 renal = system: UO-31 renal
ACHN renal = system: ACHN renal
OVCAR-8 ovarian = system: OVCAR-8 ovarian
UACC-62 melanoma = system: UACC-62 melanoma
NCI-H522 lung = system: NCI-H522 lung
MALME-3M melanoma = system: MALME-3M melanoma
HL-60(TB) leukemia = system: HL-60(TB) leukemia
OVCAR-4 ovarian = system: OVCAR-4 ovarian
TK-10 renal = system: TK-10 renal
SF-268 CNS = system: SF-268 CNS
RXF 393 renal = system: RXF 393 renal
MDA-MB-231 breast = system: MDA-MB-231 breast

## O=C(c1ccc(Cl)cc1Cl)N(C(=O)N1CCC(c2ccccc2)CC1)c1ccccc1
HCT-116 colon
  TGI: > 100 µM
M14 melanoma
  TGI: > 100 µM
KM12 colon
  TGI: > 100 µM
NCI-H226 lung
  TGI: > 100 µM
SF-295 CNS
  TGI: > 100 µM
HOP-92 NSCLC
  TGI: > 100 µM
NCI-H460 lung
  TGI: > 100 µM
A549 NSCLC
  TGI: > 100 µM
A498 renal
  TGI: > 100 µM
CAKI-1 renal
  TGI: > 100 µM
PC-3 prostate
  TGI: > 100 µM
SNB-19 CNS
  TGI: > 100 µM
NCI-H23 lung
  TGI: > 100 µM
SK-MEL-28 melanoma
  TGI: > 100 µM
SNB-75 CNS
  TGI: > 100 µM
IGROV1 ovarian
  TGI: > 100 µM
786-0 renal
  TGI: > 100 µM
EKVX NSCLC
  TGI: > 100 µM
SK-MEL-5 melanoma
  TGI: > 100 µM
COLO 205 colon
  TGI: > 100 µM
LOX IMVI melanoma
  TGI: > 100 µM
UACC-257 melanoma
  TGI: > 100 µM
SF-539 CNS
  TGI: > 100 µM
SW-620 colon
  TGI: > 100 µM
MCF7 breast
  TGI: > 100 µM
OVCAR-3 ovarian
  TGI: > 100 µM
CCRF-CEM leukemia
  TGI: > 100 µM
BT-549 breast
  TGI: > 100 µM
K-562 leukemia
  TGI: > 100 µM
HCT-15 colon
  TGI: > 100 µM
OVCAR-5 ovarian
  TGI: > 100 µM
HOP-62 NSCLC
  TGI: > 100 µM
MDA-MB-435
  TGI: > 100 µM
SK-OV-3 ovarian
  TGI: > 100 µM
SR leukemia
  TGI: > 100 µM
MOLT-4 leukemia
  TGI: 75 µM
HCC-2998 colon
  TGI: > 100 µM
SK-MEL-2 melanoma
  TGI: > 100 µM
DU-145 prostate
  TGI: > 100 µM
T-47D breast
  TGI: > 100 µM
SN12C renal
  TGI: > 100 µM
U251 CNS
  TGI: > 100 µM
HT29 colon
  TGI: > 100 µM
RPMI-8226 leukemia
  TGI: > 100 µM
NCI/ADR-RES ovarian
  TGI: > 100 µM
UO-31 renal
  TGI: > 100 µM
ACHN renal
  TGI: > 100 µM
OVCAR-8 ovarian
  TGI: > 100 µM
UACC-62 melanoma
  TGI: > 100 µM

## O=C1C2C(C(=O)N1c1ccc(OCc3ccccc3)cc1)C1c3ccccc3C2C2CCCCN21 (stereo unspecified)
NCI-H522 lung
  GI50: 53.5 µM
SNB-19 CNS
  GI50: 47.6 µM
SNB-75 CNS
  GI50: 61.4 µM
COLO 205 colon
  GI50: 73.3 µM
K-562 leukemia
  GI50: 59.8 µM
U251 CNS
  GI50: 41.5 µM
HT29 colon
  GI50: 79.7 µM
RPMI-8226 leukemia
  GI50: 64 µM
UO-31 renal
  GI50: 32.7 µM

## N#CC(C#N)=Cc1ccc(-c2ccc(-c3nc4ccccc4s3)cc2)o1
HCT-116 colon
  GI50: 5.11 µM
  TGI: 24.9 µM
M14 melanoma
  GI50: > 100 µM
  TGI: > 100 µM
MALME-3M melanoma
  GI50: 22.2 µM
  TGI: > 100 µM
KM12 colon
  GI50: 16.9 µM
  TGI: > 100 µM
NCI-H226 lung
  GI50: 14.2 µM
  TGI: 39.2 µM
SF-295 CNS
  GI50: 20.7 µM
  TGI: 46 µM
HL-60(TB) leukemia
  GI50: 37.4 µM
  TGI: > 100 µM
NCI-H460 lung
  GI50: 30.1 µM
  TGI: > 100 µM
A549 NSCLC
  GI50: 14.3 µM
  TGI: 38.5 µM
OVCAR-4 ovarian
  GI50: 30.5 µM
  TGI: > 100 µM
A498 renal
  GI50: 0.346 µM
  TGI: 0.985 µM
NCI-H522 lung
  GI50: 17.8 µM
  TGI: 51.8 µM
CAKI-1 renal
  GI50: 25 µM
  TGI: > 100 µM
PC-3 prostate
  GI50: 9.54 µM
  TGI: 22.5 µM
SNB-19 CNS
  GI50: 30 µM
  TGI: 84.3 µM
NCI-H23 lung
  GI50: 15.6 µM
  TGI: 43.3 µM
SK-MEL-28 melanoma
  GI50: 27.5 µM
  TGI: > 100 µM
SNB-75 CNS
  GI50: 25.3 µM
  TGI: 60 µM
IGROV1 ovarian
  GI50: 3.7 µM
  TGI: 56.3 µM
786-0 renal
  GI50: 3.15 µM
  TGI: 16 µM
EKVX NSCLC
  GI50: 25.7 µM
  TGI: > 100 µM
SK-MEL-5 melanoma
  GI50: 6.01 µM
  TGI: 76.2 µM
COLO 205 colon
  GI50: 20.6 µM
  TGI: 55.3 µM
LOX IMVI melanoma
  GI50: 15.1 µM
  TGI: 30.3 µM
UACC-257 melanoma
  GI50: 92.9 µM
  TGI: > 100 µM
SF-539 CNS
  GI50: 11.2 µM
  TGI: 26.7 µM
SW-620 colon
  GI50: 7.9 µM
  TGI: > 100 µM
MCF7 breast
  GI50: 6.2 µM
  TGI: > 100 µM
OVCAR-3 ovarian
  GI50: 66.9 µM
  TGI: > 100 µM
TK-10 renal
  GI50: 17.2 µM
  TGI: 36.9 µM
CCRF-CEM leukemia
  GI50: 4.15 µM
  TGI: 70.6 µM
BT-549 breast
  GI50: 32.9 µM
  TGI: 96.1 µM
K-562 leukemia
  GI50: 27.4 µM
  TGI: > 100 µM
HCT-15 colon
  GI50: 11.9 µM
  TGI: 50.4 µM
OVCAR-5 ovarian
  GI50: 11.9 µM
  TGI: 24.2 µM
HOP-62 NSCLC
  GI50: 11.4 µM
  TGI: 44.2 µM
SF-268 CNS
  GI50: 27.6 µM
  TGI: > 100 µM
MDA-MB-435
  GI50: 25.4 µM
  TGI: 81.8 µM
SK-OV-3 ovarian
  GI50: 10 µM
  TGI: 35.4 µM
MOLT-4 leukemia
  GI50: 14 µM
  TGI: > 100 µM
HCC-2998 colon
  GI50: 18.9 µM
  TGI: 45.1 µM
SK-MEL-2 melanoma
  GI50: 63.2 µM
  TGI: > 100 µM
DU-145 prostate
  GI50: 18.2 µM
  TGI: 78.2 µM
T-47D breast
  GI50: 4.46 µM
  TGI: 38.2 µM
SN12C renal
  GI50: 1.09 µM
  TGI: 12.6 µM
RXF 393 renal
  GI50: 42.4 µM
  TGI: > 100 µM
U251 CNS
  GI50: 12 µM
  TGI: 24.8 µM
HT29 colon
  GI50: 46 µM
  TGI: > 100 µM
NCI/ADR-RES ovarian
  GI50: 4.16 µM
  TGI: 14.3 µM
MDA-MB-231 breast
  GI50: 19.8 µM
  TGI: 37.8 µM
UO-31 renal
  GI50: 20.3 µM
  TGI: > 100 µM
ACHN renal
  GI50: 18.5 µM
  TGI: > 100 µM
OVCAR-8 ovarian
  GI50: 12.7 µM
  TGI: 33.1 µM
UACC-62 melanoma
  GI50: 21.7 µM
  TGI: 70.3 µM
